Read-outs that look alike come from different tables or passages of the source.
Experiments:
[1] = target: T1, AEA-DA lipid probe targets in Neuro2a cells (Mus musculus, UniProt P01897)
T1 sequence (P01897 25-362): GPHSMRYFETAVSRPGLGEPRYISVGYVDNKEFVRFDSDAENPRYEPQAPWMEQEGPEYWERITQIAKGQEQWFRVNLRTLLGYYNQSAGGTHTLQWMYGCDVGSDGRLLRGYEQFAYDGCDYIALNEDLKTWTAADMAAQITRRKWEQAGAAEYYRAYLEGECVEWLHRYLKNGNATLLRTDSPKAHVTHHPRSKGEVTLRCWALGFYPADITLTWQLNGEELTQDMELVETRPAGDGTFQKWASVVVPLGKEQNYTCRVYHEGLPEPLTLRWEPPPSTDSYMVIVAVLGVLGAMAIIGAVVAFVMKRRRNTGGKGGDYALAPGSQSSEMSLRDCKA

[2] = target: T2, AEA-DA lipid probe targets in Neuro2a cells (Mus musculus, UniProt P10649)
T2 sequence (P10649 1-218): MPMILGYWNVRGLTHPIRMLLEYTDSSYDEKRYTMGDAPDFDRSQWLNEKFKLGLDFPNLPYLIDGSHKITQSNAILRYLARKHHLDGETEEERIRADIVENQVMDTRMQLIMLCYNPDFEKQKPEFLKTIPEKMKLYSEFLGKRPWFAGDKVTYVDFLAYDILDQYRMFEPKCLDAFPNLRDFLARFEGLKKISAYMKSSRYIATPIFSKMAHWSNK

[3] = target: AEA-DA lipid probe targets in Neuro2a cells (Mus musculus, UniProt P06795)
[4] = target: AEA-DA lipid probe targets in Neuro2a cells (Mus musculus, UniProt O88696)
[5] = target: AEA-DA lipid probe targets in Neuro2a cells (Mus musculus, UniProt P53994)
[6] = target: T3, AEA-DA lipid probe targets in Neuro2a cells (Mus musculus, UniProt Q9CQ85); settings: for SILAC ratio, TIMM22 (Q9CQ85): Neuro2a cells, AEA-DA probe
T3 sequence (Q9CQ85 1-194): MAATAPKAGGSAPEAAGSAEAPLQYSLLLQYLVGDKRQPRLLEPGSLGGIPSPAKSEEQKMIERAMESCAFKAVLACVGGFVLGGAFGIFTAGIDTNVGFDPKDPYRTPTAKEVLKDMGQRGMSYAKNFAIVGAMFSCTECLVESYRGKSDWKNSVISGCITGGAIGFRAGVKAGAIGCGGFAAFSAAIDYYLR

[7] = target: T4, AEA-DA lipid probe targets in Neuro2a cells (Mus musculus, UniProt Q9CQF9)
T4 sequence (Q9CQF9 29-505): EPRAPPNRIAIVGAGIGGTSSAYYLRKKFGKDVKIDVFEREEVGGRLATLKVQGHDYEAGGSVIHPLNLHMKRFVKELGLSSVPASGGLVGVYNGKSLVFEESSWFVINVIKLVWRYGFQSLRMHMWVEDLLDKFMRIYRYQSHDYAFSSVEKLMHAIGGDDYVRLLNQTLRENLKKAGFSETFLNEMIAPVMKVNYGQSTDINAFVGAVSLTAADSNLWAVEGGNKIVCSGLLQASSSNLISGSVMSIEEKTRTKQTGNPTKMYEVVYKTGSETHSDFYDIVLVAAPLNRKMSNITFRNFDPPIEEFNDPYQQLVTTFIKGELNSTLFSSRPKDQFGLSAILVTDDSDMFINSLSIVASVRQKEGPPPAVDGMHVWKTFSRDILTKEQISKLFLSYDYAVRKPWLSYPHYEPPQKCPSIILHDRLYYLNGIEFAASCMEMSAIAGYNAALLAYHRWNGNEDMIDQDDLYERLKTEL

[8] = target: T5, AEA-DA lipid probe targets in Neuro2a cells (Mus musculus, UniProt Q61712); settings: for SILAC ratio, DNAJC1 (Q96KC8): Neuro2a cells, AEA-DA probe
T5 sequence (Q61712 44-552): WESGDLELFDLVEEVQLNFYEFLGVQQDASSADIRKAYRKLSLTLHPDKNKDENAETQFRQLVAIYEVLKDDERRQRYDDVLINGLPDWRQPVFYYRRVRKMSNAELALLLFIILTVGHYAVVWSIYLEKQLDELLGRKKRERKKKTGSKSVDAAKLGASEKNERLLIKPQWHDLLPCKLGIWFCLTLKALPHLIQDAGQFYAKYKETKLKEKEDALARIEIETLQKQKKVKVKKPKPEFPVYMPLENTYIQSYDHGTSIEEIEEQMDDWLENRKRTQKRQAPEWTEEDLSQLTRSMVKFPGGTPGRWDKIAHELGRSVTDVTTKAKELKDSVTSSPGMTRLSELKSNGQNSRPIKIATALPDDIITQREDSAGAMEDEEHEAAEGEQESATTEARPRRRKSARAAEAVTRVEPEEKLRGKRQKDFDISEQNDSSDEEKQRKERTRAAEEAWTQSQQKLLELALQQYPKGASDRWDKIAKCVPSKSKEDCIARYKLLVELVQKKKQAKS

[9] = target: T6, AEA-DA lipid probe targets in Neuro2a cells (Mus musculus, UniProt O88455)
T6 sequence (O88455 1-471): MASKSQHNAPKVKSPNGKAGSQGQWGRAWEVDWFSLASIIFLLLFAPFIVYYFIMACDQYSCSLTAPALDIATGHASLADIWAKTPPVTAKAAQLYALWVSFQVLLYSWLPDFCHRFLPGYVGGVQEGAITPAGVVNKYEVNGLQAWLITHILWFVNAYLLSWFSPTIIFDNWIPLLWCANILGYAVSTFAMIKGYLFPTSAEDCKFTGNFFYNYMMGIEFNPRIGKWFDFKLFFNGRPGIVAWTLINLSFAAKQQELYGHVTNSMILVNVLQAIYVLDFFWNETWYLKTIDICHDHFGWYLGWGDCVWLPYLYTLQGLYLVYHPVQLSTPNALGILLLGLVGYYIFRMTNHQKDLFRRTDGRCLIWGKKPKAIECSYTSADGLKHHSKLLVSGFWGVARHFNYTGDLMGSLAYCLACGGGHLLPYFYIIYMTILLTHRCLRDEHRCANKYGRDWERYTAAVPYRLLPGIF

[10] = target: AEA-DA lipid probe targets in Neuro2a cells (Mus musculus, UniProt Q60715)
Sequence of AEA-DA lipid probe targets in Neuro2a cells (Mus musculus, UniProt Q60715) (Q60715 18-534): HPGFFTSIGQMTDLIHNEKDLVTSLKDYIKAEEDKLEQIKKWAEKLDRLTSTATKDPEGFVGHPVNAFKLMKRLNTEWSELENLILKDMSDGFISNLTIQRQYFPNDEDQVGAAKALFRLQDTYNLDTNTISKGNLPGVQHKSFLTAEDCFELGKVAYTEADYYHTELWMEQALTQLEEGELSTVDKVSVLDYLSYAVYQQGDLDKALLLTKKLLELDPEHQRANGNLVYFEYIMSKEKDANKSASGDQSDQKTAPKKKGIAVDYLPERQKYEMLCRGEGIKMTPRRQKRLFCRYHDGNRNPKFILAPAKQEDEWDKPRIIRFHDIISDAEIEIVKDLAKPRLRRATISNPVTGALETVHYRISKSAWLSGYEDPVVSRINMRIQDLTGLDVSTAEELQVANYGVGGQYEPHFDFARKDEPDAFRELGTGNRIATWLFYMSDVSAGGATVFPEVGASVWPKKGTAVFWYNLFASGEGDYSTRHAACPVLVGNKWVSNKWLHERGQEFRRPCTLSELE

Sequence of AEA-DA lipid probe targets in Neuro2a cells (Mus musculus, UniProt P06795) (P06795 whole entry): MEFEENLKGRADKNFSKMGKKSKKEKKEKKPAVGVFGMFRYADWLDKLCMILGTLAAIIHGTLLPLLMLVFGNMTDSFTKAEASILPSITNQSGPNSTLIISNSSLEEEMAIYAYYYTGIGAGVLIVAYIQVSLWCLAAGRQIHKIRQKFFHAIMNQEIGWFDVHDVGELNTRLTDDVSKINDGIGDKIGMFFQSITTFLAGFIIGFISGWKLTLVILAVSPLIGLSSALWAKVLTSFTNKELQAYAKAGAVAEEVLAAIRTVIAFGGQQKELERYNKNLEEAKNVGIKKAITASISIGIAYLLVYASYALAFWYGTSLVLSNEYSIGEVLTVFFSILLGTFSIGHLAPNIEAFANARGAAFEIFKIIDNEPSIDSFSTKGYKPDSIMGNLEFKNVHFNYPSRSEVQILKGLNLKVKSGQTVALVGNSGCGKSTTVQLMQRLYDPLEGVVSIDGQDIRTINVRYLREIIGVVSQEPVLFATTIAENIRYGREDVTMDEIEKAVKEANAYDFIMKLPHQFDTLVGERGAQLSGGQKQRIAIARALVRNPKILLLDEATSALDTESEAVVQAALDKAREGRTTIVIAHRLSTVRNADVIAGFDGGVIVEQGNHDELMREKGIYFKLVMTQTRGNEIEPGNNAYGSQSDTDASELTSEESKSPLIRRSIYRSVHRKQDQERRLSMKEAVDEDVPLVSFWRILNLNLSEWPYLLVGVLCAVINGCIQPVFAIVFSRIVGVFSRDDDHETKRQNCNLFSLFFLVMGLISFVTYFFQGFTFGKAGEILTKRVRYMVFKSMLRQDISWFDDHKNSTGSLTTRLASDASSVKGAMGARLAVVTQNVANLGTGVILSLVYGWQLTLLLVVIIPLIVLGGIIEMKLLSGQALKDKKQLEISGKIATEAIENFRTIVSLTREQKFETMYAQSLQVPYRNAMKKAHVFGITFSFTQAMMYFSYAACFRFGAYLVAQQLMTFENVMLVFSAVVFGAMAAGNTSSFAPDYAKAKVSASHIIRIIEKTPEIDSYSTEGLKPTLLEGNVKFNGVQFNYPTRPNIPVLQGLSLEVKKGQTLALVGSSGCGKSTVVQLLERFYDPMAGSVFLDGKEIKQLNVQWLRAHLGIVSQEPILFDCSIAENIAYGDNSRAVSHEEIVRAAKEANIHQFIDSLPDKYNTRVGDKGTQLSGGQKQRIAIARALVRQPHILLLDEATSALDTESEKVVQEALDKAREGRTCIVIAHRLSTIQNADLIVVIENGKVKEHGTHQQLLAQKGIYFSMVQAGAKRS
Sequence of AEA-DA lipid probe targets in Neuro2a cells (Mus musculus, UniProt P53994) (P53994 whole entry): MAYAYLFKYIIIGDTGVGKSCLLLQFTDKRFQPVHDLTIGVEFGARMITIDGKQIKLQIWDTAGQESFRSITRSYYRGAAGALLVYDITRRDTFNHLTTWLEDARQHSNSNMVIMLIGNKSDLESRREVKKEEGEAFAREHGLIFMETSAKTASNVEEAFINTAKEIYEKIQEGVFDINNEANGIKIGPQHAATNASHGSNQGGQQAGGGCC
Sequence of AEA-DA lipid probe targets in Neuro2a cells (Mus musculus, UniProt O88696) (O88696 53-272): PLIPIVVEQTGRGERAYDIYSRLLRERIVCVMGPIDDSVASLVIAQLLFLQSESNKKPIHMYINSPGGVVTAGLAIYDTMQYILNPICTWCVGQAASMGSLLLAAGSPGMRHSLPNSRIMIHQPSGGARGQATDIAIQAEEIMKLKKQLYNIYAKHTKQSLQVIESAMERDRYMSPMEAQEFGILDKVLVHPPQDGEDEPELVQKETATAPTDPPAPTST

O=C(/C=C/c1cccnc1)NCCCCC1CCN(C(=O)c2ccccc2)CC1 [FK-866, reference compound]
SILAC ratio H2-L ([1]; competitor 25 μM): 1.0
SILAC ratio, Gstm1 ([2]; competitor 25 μM): 1.5
SILAC ratio, Abcb1b ([3]; competitor 25 μM): 5.4
SILAC ratio Clpp ([4]; competitor 25 μM): 1.0
SILAC ratio Rab2a ([5]; competitor 25 μM): 1.2
SILAC ratio, TIMM22 (Q9CQ85) ([6]; competitor 25 μM): 1.2
SILAC ratio, Timm22 ([6]; competitor 25 μM): 1.2
SILAC ratio, Pcyox1 ([7]; competitor 25 μM): 1.2
SILAC ratio, DNAJC1 (Q96KC8) ([8]; competitor 25 μM): 1.4
SILAC ratio, Dnajc1 ([8]; competitor 25 μM): 1.4
SILAC ratio Dhcr7 ([9]; competitor 25 μM): 0.9
SILAC ratio P4ha1 ([10]; competitor 25 μM): 1.1

CCCCC/C=C\C/C=C\C/C=C\C/C=C\CCCC(=O)NCCO [AEA, anandamide, reference compound]
SILAC ratio H2-L ([1]; competitor 200 μM): 1.3
SILAC ratio, Gstm1 ([2]; competitor 200 μM): 2.3
SILAC ratio, Abcb1b ([3]; competitor 200 μM): 2.3
SILAC ratio Clpp ([4]; competitor 200 μM): 1.4
SILAC ratio Rab2a ([5]; competitor 200 μM): 1.3
SILAC ratio, TIMM22 (Q9CQ85) ([6]; competitor 200 μM): 1.3
SILAC ratio, Timm22 ([6]; competitor 200 μM): 1.3
SILAC ratio, Pcyox1 ([7]; competitor 200 μM): 1.7
SILAC ratio, DNAJC1 (Q96KC8) ([8]; competitor 200 μM): 2.1
SILAC ratio, Dnajc1 ([8]; competitor 200 μM): 2.1
SILAC ratio Dhcr7 ([9]; competitor 200 μM): 1.5
SILAC ratio P4ha1 ([10]; competitor 200 μM): 1.0

CN1CCN(C(=O)c2c(-c3ccccc3)c3cc([N+](=O)[O-])ccc3n2C)CC1 [KML110, (1-Methyl-5-nitro-3-phenyl-1H-indol-2-yl)(4-methylpiperazin-1-yl)methanone]
SILAC ratio H2-L ([1]; competitor 25 μM): 1.7
SILAC ratio, Gstm1 ([2]; competitor 25 μM): 2.2
SILAC ratio, Abcb1b ([3]; competitor 25 μM): 5.7
SILAC ratio Clpp ([4]; competitor 25 μM): 2.4
SILAC ratio Rab2a ([5]; competitor 25 μM): 1.3
SILAC ratio, Timm22 ([6]; competitor 25 μM): 1.4
SILAC ratio, Pcyox1 ([7]; competitor 25 μM): 1.5
SILAC ratio Dhcr7 ([9]; competitor 25 μM): 1.2

C=CCN(C)CCCCCCOc1ccc(C(=O)c2ccc(Br)cc2)c(F)c1 [Ro 48-8071, reference compound]
SILAC ratio H2-L ([1]; competitor 25 μM): 0.8
SILAC ratio, Gstm1 ([2]; competitor 25 μM): 1.4
SILAC ratio, Abcb1b ([3]; competitor 25 μM): 1.7
SILAC ratio Clpp ([4]; competitor 25 μM): 0.9
SILAC ratio Rab2a ([5]; competitor 25 μM): 1.1
SILAC ratio, TIMM22 (Q9CQ85) ([6]; competitor 25 μM): 1.1
SILAC ratio, Timm22 ([6]; competitor 25 μM): 1.1
SILAC ratio, Pcyox1 ([7]; competitor 25 μM): 1.8
SILAC ratio, DNAJC1 (Q96KC8) ([8]; competitor 25 μM): 1.2
SILAC ratio, Dnajc1 ([8]; competitor 25 μM): 1.2
SILAC ratio Dhcr7 ([9]; competitor 25 μM): 0.8
SILAC ratio P4ha1 ([10]; competitor 25 μM): 1.1

CN1CCN(C(=O)c2[nH]c3ccc([N+](=O)[O-])cc3c2-c2ccccc2)CC1 [MJN228, (4-Methylpiperazin-1-yl)(5-nitro-3-phenyl-1H-indol-2-yl)methanone]
SILAC ratio H2-L ([1]; competitor 10 μM): 1.0
SILAC ratio H2-L ([1]; competitor 25 μM): 1.1
SILAC ratio H2-L ([1]; competitor 50 μM): 1.1
SILAC ratio H2-L ([1]; competitor 100 μM): 1.0
SILAC ratio, Gstm1 ([2]; competitor 10 μM): 1.7
SILAC ratio, Gstm1 ([2]; competitor 25 μM): 1.7
SILAC ratio, Gstm1 ([2]; competitor 50 μM): 2.1
SILAC ratio, Gstm1 ([2]; competitor 100 μM): 2.6
SILAC ratio, Abcb1b ([3]; competitor 10 μM): 2.6
SILAC ratio, Abcb1b ([3]; competitor 25 μM): 4.0
SILAC ratio, Abcb1b ([3]; competitor 50 μM): 9.4
SILAC ratio, Abcb1b ([3]; competitor 100 μM): 20.0
SILAC ratio Clpp ([4]; competitor 10 μM): 1.4
SILAC ratio Clpp ([4]; competitor 25 μM): 2.1
SILAC ratio Clpp ([4]; competitor 50 μM): 3.6
SILAC ratio Clpp ([4]; competitor 100 μM): 9.0
SILAC ratio Rab2a ([5]; competitor 10 μM): 1.4
SILAC ratio Rab2a ([5]; competitor 25 μM): 1.5
SILAC ratio Rab2a ([5]; competitor 50 μM): 1.6
SILAC ratio Rab2a ([5]; competitor 100 μM): 1.6
SILAC ratio, TIMM22 (Q9CQ85) ([6]; competitor 25 μM): 1.3
SILAC ratio, Timm22 ([6]; competitor 10 μM): 1.0
SILAC ratio, Timm22 ([6]; competitor 25 μM): 1.3
SILAC ratio, Timm22 ([6]; competitor 50 μM): 1.0
SILAC ratio, Timm22 ([6]; competitor 100 μM): 1.8
SILAC ratio, Pcyox1 ([7]; competitor 10 μM): 1.2
SILAC ratio, Pcyox1 ([7]; competitor 25 μM): 1.4
SILAC ratio, Pcyox1 ([7]; competitor 50 μM): 1.6
SILAC ratio, Pcyox1 ([7]; competitor 100 μM): 2.2
SILAC ratio, DNAJC1 (Q96KC8) ([8]; competitor 25 μM): 1.6
SILAC ratio, Dnajc1 ([8]; competitor 10 μM): 1.0
SILAC ratio, Dnajc1 ([8]; competitor 25 μM): 1.6
SILAC ratio, Dnajc1 ([8]; competitor 50 μM): 1.5
SILAC ratio Dhcr7 ([9]; competitor 10 μM): 1.1
SILAC ratio Dhcr7 ([9]; competitor 25 μM): 1.2
SILAC ratio Dhcr7 ([9]; competitor 50 μM): 1.5
SILAC ratio Dhcr7 ([9]; competitor 100 μM): 1.7
SILAC ratio P4ha1 ([10]; competitor 10 μM): 1.3

Source: patent US10168342B2, “Lipid probes and uses thereof” (THE SCRIPPS RESEARCH INSTITUTE, priority 2015, dated 2019)
